Measured values as given in paper PMC12035560, “Structures of Mycobacterium tuberculosis isoprenyl diphosphate synthase Rv2173 in substrate-bound forms” (Acta Crystallographica Section F: Structural Biology …, 2025).

Target: T1, Rv2173 (Mycobacterium tuberculosis, UniProt O53507)
T1 construct: gene idsA2
T1 sequence (O53507 whole entry): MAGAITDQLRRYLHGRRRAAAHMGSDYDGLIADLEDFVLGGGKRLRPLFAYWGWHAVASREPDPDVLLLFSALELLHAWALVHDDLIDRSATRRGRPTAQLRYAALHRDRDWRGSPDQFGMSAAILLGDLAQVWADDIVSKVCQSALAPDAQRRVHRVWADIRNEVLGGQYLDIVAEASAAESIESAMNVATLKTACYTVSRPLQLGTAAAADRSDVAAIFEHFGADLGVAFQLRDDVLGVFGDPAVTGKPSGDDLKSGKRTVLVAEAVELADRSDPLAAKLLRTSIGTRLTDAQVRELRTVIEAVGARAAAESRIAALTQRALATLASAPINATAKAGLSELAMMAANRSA

Structure (SMILES): CC(C)=CCOP(=O)(O)OP(=O)(O)O [DMAPP]
- X-ray crystal structure, 2.20 A, co-crystallization: Two metal ions bind to the FARM, coordinating to the DMAPP bound in the allylic/DMAPP site
